Measured values taken from patent US20250049970A1, “DLL3 TARGETING PEPTIDES AND CONSTRUCTS THEREOF” (MARIANA ONCOLOGY INC., priority 2023, published 2025).
Read-outs that look alike come from different tables or passages of the source. *1 amine or outer side, *2 acyl side, *3 side chain or, on linkers, in order; H or OH if unused. Where a SMILES comes first, the peptide text is derived from it. Bridges are numbered along the chain shown (N, C = ends). [ ]: non-standard residue; d: D form. The star is where a group is joined. Ala(piperidin-4-yl) = O=C([C@H](CC1CCN([*:3])CC1)N[*:1])[*:2]; DOTA = O=C(O)CN1CCN(CC(=O)O)CCN(CC(=O)*)CCN(CC(=O)O)CC1; X2 = O=C(Cc1ccc(I)cc1)NCCOCCOCCOCCOCCOCCOCCOCCOCC(=O)*; 2Nal = N[C@@H](Cc1ccc2ccccc2c1)C(=O)O; Chg = N[C@H](C(=O)O)C1CCCCC1; NMeNle = CCCC[C@H](NC)C(=O)O; CH2 = C([*:1])[*:2]

Columns and labels:
CT26.DLL3 cells [1] = experiment: Internalization of [177Lu]Lu-labeled peptide, CT26.DLL3 cells; type: cell-based; details: 1 h, 37° C.
Procedure: (§1) [^177Lu]LuCl3 was received from venders in HCl solution. For every mCi of [^177Lu]LuCl3 added to the reaction vial (1.5 mL Eppendorf vial), ammonium acetate buffer (0.2 M, pH 4.9, 100 μL, containing 1% w/v ascorbic acid and 6% v/v ethanol) and peptide conjugate (1 nmol; also referred to herein as “chelator-peptides”) was added. The pH of the solution was determined to be approximately 5 by using pH strips. The reaction vial was incubated at 80° C., 700 RPM for 17-20 minutes. A sample from the reaction was analyzed by RP-HPLC using an Agilent Infinity II 1260 HPLC to determine reaction completion and radiochemical purity of [^177Lu]Lu-chelator-peptides. HPLC conditions: Waters XBridge BEH C18 Column, 130A, 3.5 μm, 4.6 mm×250 mm; mobile phase: Solvent A=water (with 0.1% formic acid), solvent B=acetonitrile (with 0.1% formic acid). Gradients: 25-45% B in 10 minutes, 45-65% B in 12 minutes, 65-90% in 6 minutes at a flow rate of 0.5 mL/minutes Required amounts of the product was formulated in 1% PBSA for cell studies.
(§2) The study was conducted using SHP-77, CT26.WT, CT26.DLL3, and HEK293.DLL3 cells (Table 9)
(§3) Adherent cell studies: The cells were cultured in appropriate culture media (20 mL) in tissue culture treated T150 flasks at 37° C. and 5% C02. Adherent cells were detached (60-70% confluent) using 5 mL Versene at 37° C. for 3 minutes. After confirming the viability using countess and count of detached cells using Trypan blue, the cells were centrifuged at 4° C. for 5 minutes (1,000 rpm). The cell pellet obtained was washed once with PBS and resuspended in 1% PBSA to obtain the desired cell concentration (5-25 million cells/mL).
(§4) Cell numbers used for the assay were in the range of 5 million cells/condition-25 million cells/condition.
Internalization: The resuspended cells in 300 μL of 1% PBSA and counted in the gamma counter as “bound fraction” were collected in 1.5 mL Eppendorf tube and pelleted. The pelleted cells were incubated with 300 μL of 50 mM Glycine pH=2.5 for 3 minutes and then pelleted discarding the supernatant. This process was repeated one more time. The pelleted cells were washed with 300 μL of cold 1% PBSA and then resuspended in 300 μl 0.3M NaOH. This was counted in the gamma counter as “internalized fraction”.
(§5) In these Tables, “A” represents % s ≤25; “B” represents 25 <% ≤50; “C” represents % >50.

DLL3 = molecular target: T1, DLL3 (Homo sapiens, UniProt Q9NYJ7); experiment: SPR KD, biotinylated human DLL3 on streptavidin chip (Table 8); set-up: biotin (biotinylated)
T1 sequence (Q9NYJ7 27-618): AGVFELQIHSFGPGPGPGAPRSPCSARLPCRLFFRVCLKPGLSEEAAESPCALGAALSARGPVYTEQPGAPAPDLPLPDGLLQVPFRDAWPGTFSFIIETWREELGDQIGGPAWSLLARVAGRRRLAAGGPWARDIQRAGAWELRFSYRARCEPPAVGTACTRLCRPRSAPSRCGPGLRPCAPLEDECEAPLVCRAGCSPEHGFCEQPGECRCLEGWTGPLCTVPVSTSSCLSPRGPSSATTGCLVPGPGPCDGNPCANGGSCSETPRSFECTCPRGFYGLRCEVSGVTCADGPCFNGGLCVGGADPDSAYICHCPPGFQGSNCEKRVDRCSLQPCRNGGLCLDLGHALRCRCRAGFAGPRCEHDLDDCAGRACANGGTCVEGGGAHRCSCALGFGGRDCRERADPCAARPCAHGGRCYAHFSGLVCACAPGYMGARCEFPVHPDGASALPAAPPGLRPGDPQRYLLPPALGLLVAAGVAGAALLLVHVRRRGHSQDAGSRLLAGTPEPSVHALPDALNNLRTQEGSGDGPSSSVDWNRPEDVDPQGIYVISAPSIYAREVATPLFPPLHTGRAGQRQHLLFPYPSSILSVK
From the text: Biotinylated target ligand human DLL3 was immobilized on a streptavidin sensor chip. A reference surface was set up for nonspecific binding and refractive index changes. […] Sensorgram curves were fitted with 1:1 binding model, and affinity and kinetic parameters were obtained using Biacore Insight evaluation 4.0. software.

[2] = test system: nude mice bearing SHP-77 tumors; experiment: Ex vivo biodistribution of radiolabeled peptides (% IA/g) in nude mice bearing SHP-77 tumors; details: [177Lu]Lu labelling, 24 hours post-injection, intravenous
Procedure: Mice were intravenously injected (via the lateral tail vein) with a bolus dose of the radiolabeled peptides for ex vivo biodistribution studies when tumor volumes were in range of 200-400 mm^3 for xenograft mice and when age of the mice was 5-7 weeks for tumor naïve mice studies. To assess the amount of radionuclide injected into individual mice the syringe was assayed in a dose calibrator before and after injection for [^177Lu]Lu-peptide, then the injected dose was determined from the weight difference and concentration of the radionuclide solution.
Mice were euthanized at pre-determined time points and selected tissues were resected and collected into pre-weighed tubes. The tubes were then reweighed post resection, the difference giving the weight of each tissue. Radioactivity in each tissue was measured using a gamma counter. Counts were decay corrected to the time of injection and percentage of injected activity per gram (% IA/g) was calculated for each tissue based on the injected activity into each individual mouse. Injected activity was converted to counts based on the sensitivity of the gamma counter. The counts in tissue were then converted to the percentage of injected activity and this was divided by the mass of tissue to give % IA/g.

CT26.DLL3 cells [3] = experiment: Cell binding (total uptake) of [177Lu]Lu-labeled peptide, CT26.DLL3 cells; type: cell-based; details: 1 h, 37° C.
Procedure: as §1, §2, §3, §4
Total uptake: Cells were incubated with 300 μL (0.8 μCi) of the incubation buffer (containing radiolabeled peptide [^177Lu]Lu-test peptide) for 1 hour at 37° C. (Table 10). Post incubation, the cells were pelleted and washed 2 times using cold PBS+1% BSA. The supernatant and washes were combined and counted together as “unbound fraction” in a gamma counter. The cells were then resuspended in 300 μL of 1% PBS+1% BSA and counted in the gamma counter as “bound fraction”.
as §5

[4] = molecular target: T2, DLL3 (target ligand immobilized on a SA sensor chip via streptavidin capture) (Homo sapiens (Human), UniProt Q9NYJ7 27-492, limits assumed); experiment: SPR, Biacore S200, target ligand on SA chip, 25 C, 1:1 fit
T2 sequence: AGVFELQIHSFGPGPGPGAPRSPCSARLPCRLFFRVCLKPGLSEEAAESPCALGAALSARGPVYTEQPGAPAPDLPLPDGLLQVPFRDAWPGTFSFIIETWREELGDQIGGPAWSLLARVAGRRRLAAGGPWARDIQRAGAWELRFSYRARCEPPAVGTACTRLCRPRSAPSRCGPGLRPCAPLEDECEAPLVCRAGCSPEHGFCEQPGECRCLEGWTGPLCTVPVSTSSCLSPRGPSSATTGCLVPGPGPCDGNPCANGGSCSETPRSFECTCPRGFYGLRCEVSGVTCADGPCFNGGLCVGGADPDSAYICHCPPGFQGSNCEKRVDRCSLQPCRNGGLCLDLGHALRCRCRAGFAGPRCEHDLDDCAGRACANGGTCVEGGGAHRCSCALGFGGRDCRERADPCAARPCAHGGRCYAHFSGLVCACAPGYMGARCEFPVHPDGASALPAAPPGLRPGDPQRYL
Procedure: Target ligand was immobilized on a SA sensor chip via streptavidin capture. A reference surface was set up for nonspecific binding and refractive index changes. For analysis of the kinetics of interactions, varying concentrations of peptides were injected at a flow rate of 50 μL/minute using running buffer containing 20 mM phosphate buffer with 2.7 mM KCl, 137 mM NaCl and 0.05% Surfactant P20. Sensorgram curves were fitted with 1:1 binding model, and affinity and kinetic parameters were obtained using either Biacore S200 evaluation software 1.1.1 or Biacore Insight evaluation 4.0.

| Kd (DLL3; biotinylated human DLL3 on streptavidin sensor chip, 25° C., 1:1 binding model; read-out: SPR KD) [nM] | Kd [4] [nM] | Molecule | % Internalization (out of bound fraction) (CT26.DLL3 cells [1]) | kidney uptake (% IA/g) [2] | tumor uptake (% IA/g) [2] | % Binding (CT26.DLL3 cells [3]) | Kd (DLL3; read-out: SPR KD; biotinylated human DLL3 on streptavidin sensor chip, 25° C., 1:1 binding model) [nM] |
| --- | --- | --- | --- | --- | --- | --- | --- |
| < 1 | – | CCCC[C@@H](C(=O)N[C@H]1CSSC[C@@H](C(=O)N[C@@H](Cc2c[nH]c3ccccc23)C(=O)N2CCC[C@H]2C(N)=O)NC(=O)[C@H](CC(=O)O)NC(=O)[C@H](CCCCNC(=O)CN2CCN(CC(=O)O)CCN(CC(=O)O)CCN(CC(=O)O)CC2)NC(=O)[C@H](Cc2ccc3ccccc3c2)NC(=O)[C@H](CC(N)=O)NC(=O)[C@H](CC2CCNCC2)NC1=O)N(C)C(=O)[C@@H](NC(=O)[C@H](Cc1c[nH]c2ccccc12)NC(C)=O)[C@@H](C)O [compound 300, Ac-W-T-(NMe-Nle)-C(3)-[3-(4-piperidinyl)-Ala]-N-(2Nal)-Lys(DOTA)-D-C(3)-W-P-CONH2] (Ac-WT[NMeNle]C[Ala(piperidin-4-yl)]N[2Nal]K(DOTA)DCWP-NH2; disulfide 4-10) | B (25 <% ≤50) | C (“C” represents 0 < % IA/g ≤ 10 in) | A (“A” represents 0 < % IA/g ≤ 5 in tumor) | B (25 <% ≤50) | – |
| – | 57 | Ac-MWVLCEWHECWPG-NH2 (disulfide 5-10; SMILES CSCC[C@H](NC(C)=O)C(=O)N[C@@H](Cc1c[nH]c2ccccc12)C(=O)N[C@H](C(=O)N[C@@H](CC(C)C)C(=O)N[C@H]1CSSC[C@@H](C(=O)N[C@@H](Cc2c[nH]c3ccccc23)C(=O)N2CCC[C@H]2C(=O)NCC(N)=O)NC(=O)[C@H](CCC(=O)O)NC(=O)[C@H](Cc2c[nH]cn2)NC(=O)[C@H](Cc2c[nH]c3ccccc23)NC(=O)[C@H](CCC(=O)O)NC1=O)C(C)C) [SEQ ID NO 75] | – | – | – | – | – |

Further lines, the molecule ahead of its results:

| Molecule | Kd (DLL3; biotinylated human DLL3 on streptavidin sensor chip, 25° C., 1:1 binding model; read-out: SPR KD) [nM] | Kd [4] [nM] | % Internalization (out of bound fraction) (CT26.DLL3 cells [1]) | kidney uptake (% IA/g) [2] | tumor uptake (% IA/g) [2] | % Binding (CT26.DLL3 cells [3]) | Kd (DLL3; read-out: SPR KD; biotinylated human DLL3 on streptavidin sensor chip, 25° C., 1:1 binding model) [nM] |
| --- | --- | --- | --- | --- | --- | --- | --- |
| CC(=O)N[C@@H](Cc1c[nH]c2ccccc12)C(=O)N[C@H](C(=O)N[C@H](C(=O)N[C@H]1CSCSC[C@@H](C(=O)N[C@@H](Cc2c[nH]c3ccccc23)C(=O)N2CCC[C@H]2C(=O)N[C@H](CCCCNC(=O)COCCOCCOCCOCCOCCOCCOCCOCCNC(=O)Cc2ccc(I)cc2)C(N)=O)NC(=O)[C@H](CC(=O)O)NC(=O)[C@H](CCCCNC(=O)CN2CCN(CC(=O)O)CCN(CC(=O)O)CCN(CC(=O)O)CC2)NC(=O)[C@H](Cc2ccc3ccccc3c2)NC(=O)[C@H](CC(N)=O)NC(=O)[C@H](CC2CCNCC2)NC1=O)C1CCCCC1)[C@@H](C)O [compound 417] (Ac-WT[Chg]C[Ala(piperidin-4-yl)]N[2Nal]K(DOTA)DCWP[dK](X2)-NH2; linker 4-10 via CH2) | – | – | B (25 <% ≤50) | D (“D” represents % IA/g > 10 in kidney) | B (“B” represents % IA/g > 5 in tumor) | B (25 <% ≤50) | < 1 |
| Ac-MWTLCDNWQTCWP-NH2 (disulfide 5-11; SMILES CSCC[C@H](NC(C)=O)C(=O)N[C@@H](Cc1c[nH]c2ccccc12)C(=O)N[C@H](C(=O)N[C@@H](CC(C)C)C(=O)N[C@H]1CSSC[C@@H](C(=O)N[C@@H](Cc2c[nH]c3ccccc23)C(=O)N2CCC[C@H]2C(N)=O)NC(=O)[C@H]([C@@H](C)O)NC(=O)[C@H](CCC(N)=O)NC(=O)[C@H](Cc2c[nH]c3ccccc23)NC(=O)[C@H](CC(N)=O)NC(=O)[C@H](CC(=O)O)NC1=O)[C@@H](C)O) [SEQ ID NO 73] | – | 42 | – | – | – | – | – |
| Ac-MWQLCEWNNCWPV-NH2 (disulfide 5-10; SMILES CSCC[C@H](NC(C)=O)C(=O)N[C@@H](Cc1c[nH]c2ccccc12)C(=O)N[C@@H](CCC(N)=O)C(=O)N[C@@H](CC(C)C)C(=O)N[C@H]1CSSC[C@@H](C(=O)N[C@@H](Cc2c[nH]c3ccccc23)C(=O)N2CCC[C@H]2C(=O)N[C@H](C(N)=O)C(C)C)NC(=O)[C@H](CC(N)=O)NC(=O)[C@H](CC(N)=O)NC(=O)[C@H](Cc2c[nH]c3ccccc23)NC(=O)[C@H](CCC(=O)O)NC1=O) [SEQ ID NO 74] | – | 110 | – | – | – | – | – |
